From the supplement of paper PMC11061612

Columns and labels:
[1] = tested on: TE-10 (Esophageal Squamous Cell Carcinoma); assay: combination Emax (second highest fraction inhibited in the dose matrix, 72 h); higher = more inhibition; extreme values may be limits of the assay
Method in brief: (§1)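 After 24 hours at 37°C and 5% CO2 in 1536-well plates, cells in DMEM/F12 or RPMI plus 10% FBS received two-drug dose matrices for 72 hours. Viability came from CellTiter-Glo 2.0 luminescence and was scaled as inhibition, anchored at 0 by vehicle wells and at 1 by blank wells. Combination Emax is taken as the second-highest inhibition in the matrix, and Bliss excess as the observed combination effect less EA + EB − EA·EB, with EA and EB the single-agent effects.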

[2] = tested on: TE-10 (Esophageal Squamous Cell Carcinoma); assay: Bliss excess, mean over the matrix (fraction); higher = more synergy
Method in brief: as §1

[3] = tested on: LU-165 (Small Cell Lung Carcinoma); assay: as above
Method in brief: as §1

NB13 (Neuroblastoma) = assay: as above
Method in brief: as §1

[4] = tested on: MDA-MB-436 (Breast Carcinoma); assay: as above
Method in brief: as §1

WM1552C (Melanoma) = assay: as above
Method in brief: as §1

[5] = tested on: SW620 (Colorectal Carcinoma); assay: as above
Method in brief: as §1

769-P (Kidney Carcinoma) = assay: as above
Method in brief: as §1

[6] = tested on: DU-4475 (Breast Carcinoma); assay: as above
Method in brief: as §1

[7] = tested on: JHU-022 (Oral Cavity Carcinoma); assay: as above
Method in brief: as §1

[8] = tested on: DMS-53 (Small Cell Lung Carcinoma); assay: as above
Method in brief: as §1

[9] = tested on: NCI-H441 (Lung Adenocarcinoma); assay: as above
Method in brief: as §1
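For Bliss excess, mean over the matrix in this document: after 72 h of two-drug dosing.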

Row | Structure (SMILES) | combination Emax [1] | Bliss excess [2] | Bliss excess [3] | Bliss excess (NB13 (Neuroblastoma)) | Bliss excess [4] | Bliss excess (WM1552C (Melanoma)) | Bliss excess [5] | Bliss excess (769-P (Kidney Carcinoma)) | Bliss excess [6] | Bliss excess [7] | Bliss excess [8] | Bliss excess [9]
1 | Cc1c2c(nn1C)CSCc1cc(n(C)n1)CSc1cc(c3ccccc3c1)OCCCc1c(C(=O)O)n(C)c3c-2c(Cl)ccc13 [AZD5991] + C[C@@H]1COCCN1C2=NC(=NC(=C2)C3(CC3)[S@](=N)(=O)C)C4=C5C=CNC5=NC=C4 [AZD6738] (first compound max 1 µM, 7x7, partner max 10 µM) | 0.901 | -0.0332 | 0.0012 | 0.012 | -0.0031 | -0.0084 | 0.0191 | -0.0333 | 0.0233 | -0.0118 | 0.0165 | 0.0073
2 | Cc1c2c(nn1C)CSCc1cc(n(C)n1)CSc1cc(c3ccccc3c1)OCCCc1c(C(=O)O)n(C)c3c-2c(Cl)ccc13 [AZD5991] + C1CN(CCC1(C(=O)N[C@@H](CCO)C2=CC=C(C=C2)Cl)N)C3=NC=NC4=C3C=CN4 [Capivasertib] (first compound max 1 µM, 7x7, partner max 3 µM) | 0.901 | 0.0484 | 0.0034 | 0.0719 | -0.0204 | -0.004 | -0.0325 | -0.0369 | -0.0023 | -0.0273 | 0.0168 | -0.0023
3 | Cc1c2c(nn1C)CSCc1cc(n(C)n1)CSc1cc(c3ccccc3c1)OCCCc1c(C(=O)O)n(C)c3c-2c(Cl)ccc13 [AZD5991] + CCN(CCO)CCCOc1ccc2c(Nc3cc(CC(=O)Nc4cccc(F)c4)[nH]n3)ncnc2c1 [AZD2811] (first compound max 1 µM, 7x7, partner max 1 µM) | 0.848 | -0.0161 | -0.025 | 0.131 | -0.0406 | -0.0095 | 0.0591 | -0.0395 | 0.075 | 0.0039 | 0.0525 | -0.0142
4 | Cc1c2c(nn1C)CSCc1cc(n(C)n1)CSc1cc(c3ccccc3c1)OCCCc1c(C(=O)O)n(C)c3c-2c(Cl)ccc13 [AZD5991] + C[C@@H](Nc1cc(F)cc(F)c1)c1cc(C(=O)N(C)C)cc2c(=O)cc(N3CCOCC3)oc12 [AZD8186] (first compound max 1 µM, 7x7, partner max 3 µM) | 0.891 | 0.0078 | -0.0238 | 0.0039 | -0.0139 | 0.0005 | -0.0298 | -0.0256 | -0.0249 | -0.0211 | 0.0267 | -0.0189
5 | CCc1c2c(nc3ccc(O)cc13)-c1cc3c(c(=O)n1C2)COC(=O)[C@]3(O)CC [SN-38] + CN(C)CCCOc1ccc(-c2ccc3ncc4c(c3c2)n(C2CCOCC2)c(=O)n4C)cn1 [AZD0156] (first compound max 0.3 µM, 7x7, partner max 1 µM) | 0.725 | 0.0444 | -0.028 | 0.0313 | 0.0033 | 0.0013 | 0.11 | 0.018 | 0.0129 | -0.0034 | -0.0288 | -0.0052
6 | Cc1c2c(nn1C)CSCc1cc(n(C)n1)CSc1cc(c3ccccc3c1)OCCCc1c(C(=O)O)n(C)c3c-2c(Cl)ccc13 [AZD5991] + CN(C)CCCOc1ccc(-c2ccc3ncc4c(c3c2)n(C2CCOCC2)c(=O)n4C)cn1 [AZD0156] (first compound max 1 µM, 7x7, partner max 1 µM) | 0.84 | -0.055 | 0.0147 | 0.0007 | -0.0369 | -0.0444 | 0.0345 | -0.0089 | -0.0262 | -0.0079 | 0.0854 | 0.0031
7 | C=CCn1c(=O)c2cnc(Nc3ccc(N4CCN(C)CC4)cc3)nc2n1-c1cccc(C(C)(C)O)n1 [AZD1775] + C[C@@H]1COCCN1C2=NC(=NC(=C2)C3(CC3)[S@](=N)(=O)C)C4=C5C=CNC5=NC=C4 [AZD6738] (first compound max 1 µM, partner max 10 µM) | 0.901 | -0.0029 | -0.0127 | 0.0101 | 0.0143 | 0.0011 | 0.0144 | 0.0092 | 0.0549 | -0.0276 | 0.0115 | -0.0834
8 | Cc1c2c(nn1C)CSCc1cc(n(C)n1)CSc1cc(c3ccccc3c1)OCCCc1c(C(=O)O)n(C)c3c-2c(Cl)ccc13 [AZD5991] + C=CCn1c(=O)c2cnc(Nc3ccc(N4CCN(C)CC4)cc3)nc2n1-c1cccc(C(C)(C)O)n1 [AZD1775] (first compound max 1 µM, partner max 1 µM) | 0.942 | -0.0235 | 0.0112 | -0.0346 | 0.0087 | -0.0651 | -0.0272 | -0.071 | -0.0582 | -0.0072 | 0.0326 | 0.0171
9 | Cc1c2c(nn1C)CSCc1cc(n(C)n1)CSc1cc(c3ccccc3c1)OCCCc1c(C(=O)O)n(C)c3c-2c(Cl)ccc13 [AZD5991] + Cc1cc2ncnn2cc1Nc1ncc2c(n1)n(C1CCOCC1)c(=O)n2C [AZD7648] (first compound max 1 µM, 7x7, partner max 10 µM) | 0.855 | -0.0057 | 0.0045 | 0.0153 | -0.042 | -0.0762 | -0.0421 | -0.0328 | 0.0811 | -0.028 | 0.0011 | -0.0529
10 | COc1cccc(OCCCN)c1-c1cc(Nc2cnc(C#N)cn2)n[nH]1 [Prexasertib] + CCc1c2c(nc3ccc(O)cc13)-c1cc3c(c(=O)n1C2)COC(=O)[C@]3(O)CC [SN-38] (first compound max 1 µM, 7x7, partner max 0.3 µM) | 0.939 | -0.0428 | -0.0618 | 0.0263 | -0.003 | -0.0306 | 0.0603 | -0.0688 | 0.0035 | -0.112 | -0.0377 | -0.0772
11 | CN(CCO)CC[C@H](CSc1ccccc1)Nc1ccc(S(=O)(=O)NC(=O)c2ccc(N3CCC([C@@H](O)c4ccccc4-c4ccc(Cl)cc4)CC3)cc2)cc1S(=O)(=O)C(F)(F)F [AZD4320] + CN(C)CCCOc1ccc(-c2ccc3ncc4c(c3c2)n(C2CCOCC2)c(=O)n4C)cn1 [AZD0156] (first compound max 1 µM, 7x7, partner max 1 µM) | 0.281 | -0.0208 | -0.025 | -0.0371 | -0.0496 | -0.0282 | -0.029 | -0.0444 | -0.0498 | -0.0584 | 0.0316 | -0.022
12 | CC1(C)CCC(CN2CCN(c3ccc(C(=O)NS(=O)(=O)c4ccc(NCC5CCOCC5)c([N+](=O)[O-])c4)c(Oc4cnc5[nH]ccc5c4)c3)CC2)=C(c2ccc(Cl)cc2)C1 [Venetoclax] + C[C@@H](Nc1cc(F)cc(F)c1)c1cc(C(=O)N(C)C)cc2c(=O)cc(N3CCOCC3)oc12 [AZD8186] (first compound max 1 µM, 7x7, partner max 3 µM) | 0.373 | -0.0428 | -0.0042 | -0.0171 | -0.0092 | -0.0157 | -0.0505 | 0.049 | -0.0202 | -0.0563 | -0.0141 | -0.0304
13 | Cc1c2c(nn1C)CSCc1cc(n(C)n1)CSc1cc(c3ccccc3c1)OCCCc1c(C(=O)O)n(C)c3c-2c(Cl)ccc13 [AZD5991] + Cn1cnc2c(F)c(Nc3ccc(Br)cc3Cl)c(C(=O)NOCCO)cc21 [Selumetinib] (first compound max 1 µM, 7x7, partner max 3 µM) | 0.899 | 0.0198 | -0.0335 | 0.045 | -0.0127 | -0.089 | 0.0005 | -0.035 | -0.0018 | 0.0466 | 0.0572 | -0.0311
14 | COc1cccc(OCCCN)c1-c1cc(Nc2cnc(C#N)cn2)n[nH]1 [Prexasertib] + Cc1cc2ncnn2cc1Nc1ncc2c(n1)n(C1CCOCC1)c(=O)n2C [AZD7648] (first compound max 1 µM, 7x7, partner max 10 µM) | 0.938 | -0.0604 | -0.0422 | -0.023 | -0.0552 | -0.0385 | -0.0177 | -0.038 | 0.0256 | -0.0661 | -0.0344 | 0.0071
15 | CCN(CCO)CCCOc1ccc2c(Nc3cc(CC(=O)Nc4cccc(F)c4)[nH]n3)ncnc2c1 [AZD2811] + C[C@@H]1COCCN1C2=NC(=NC(=C2)C3(CC3)[S@](=N)(=O)C)C4=C5C=CNC5=NC=C4 [AZD6738] (first compound max 1 µM, 7x7, partner max 10 µM) | 0.794 | -0.0869 | -0.0637 | -0.0727 | -0.0469 | -0.0468 | -0.0451 | -0.0107 | 0.0045 | -0.0357 | -0.0357 | -0.0324
